From US20090239887A1, “Method of resolution and antiviral activity of 1,3-oxathiolane nucleoside enantiomers” (Emory University, priority 1990, published 2009)
pEC50, pKi: −log10 of the molar value. Like-named read-outs stand apart in the source and are kept apart here.

Legend:
[1] = system: HIV-1 (strain LAV); test: microbe, parasite or virus in culture; type: cell-based
Text: It is often desirable to screen a number of racemic mixtures of nucleosides as a preliminary step to determine which warrant further resolution into enantiomerically enriched components and evaluation of antiviral activity. The ability of nucleosides to inhibit HIV can be measured by various experimental techniques. The technique used herein, and described in detail below, measures the inhibition of viral replication in phytohemagglutinin (PHA) stimulated human peripheral blood mononuclear (PBM) cells infected with HIV-1 (strain LAV). The amount of virus produced is determined by measuring the virus-coded reverse transcriptase enzyme. The amount of enzyme produced is proportional to the amount of virus produced.
A. Three-day-old phytohemagglutinin-stimulated PBM cells (10^6 cells/ml) from hepatitis B and HIV-1 seronegative healthy donors were infected with HIV-1 (strain LAV) at a concentration of about 100 times the 50% tissue culture infectious dose (TICD 50) per ml and cultured in the presence and absence of various concentrations of antiviral compounds.
B. Approximately one hour after infection, the medium, with the compound to be tested (2 times the final concentration in medium) or without compound, was added to the flasks (5 ml; final volume 10 ml). AZT was used as a positive control.
C. The cells were exposed to the virus (about 2×10^5 dpm/ml, as determined by reverse transcriptase assay) and then placed in a CO2 incubator. HIV-1 (strain LAV) was obtained from the Center for Disease Control, Atlanta, Ga. The methods used for culturing the PBM cells, harvesting the virus and determining the reverse transcriptase activity were those described by McDougal et al. (J. Immun. Meth. 76, 171-183, 1985) and Spira et al. (J. Clin. Meth. 25, 97-99, 1987), except that fungizone was not included in the medium (see Schinazi, et al., Antimicrob. Agents Chemother. 32, 1784-1787 (1988); Id., 34:1061-1067 (1990)).
D. On day 6, the cells and supernatant were transferred to a 15 ml tube and centrifuged at about 900 g for 10 minutes. Five ml of supernatant were removed and the virus was concentrated by centrifugation at 40,000 rpm for 30 minutes (Beckman 70.1 Ti rotor). The solubilized virus pellet was processed for determination of the levels of reverse transcriptase. Results are expressed in dpm/ml of sampled supernatant. Virus from smaller volumes of supernatant (1 ml) can also be concentrated by centrifugation prior to solubilization and determination of reverse transcriptase levels.

[2] = system: HIV; conditions: cited from earlier work
[3] = system: AZT-resistant, HIV isolates; conditions: isolates from patients treated with AZT for longer than 36 weeks; cited from earlier work
[4] = system: human PBM cells; conditions: 10 μM radiolabeled FTC, 2-24 hours
Description: (§1) Studies were undertaken using radiolabeled agent in order to follow the intracellular profiles of the parent drug and metabolites detected within the cell. All studies were conducted in duplicate. […] Cells are exposed to the drug for 2, 6, 12 and 24 hours. At these timepoints, the medium is removed and the cells are washed two times with cold Hank's balanced salt solution. Extraction is performed with addition of 0.2 ml of 60% cold methanol/water and stored overnight at −70° C. The following morning, the suspensions are centrifuged and extractions are repeated two times for 0.5 hours at −70° C. The total supernatants (0.6 ml) are lyophilized to dryness. The residues are resuspended in 250 μl of water and aliquots comprising between 50 and 100 μl are analyzed by HPLC. Quantitation of intracellular parent drug and metabolic derivatives are conducted by HPLC. Because of the potential acid lability of some compounds, a buffer system close to physiological pH is used for the separation of the metabolites.

[5] = system: hepG2 cells
Description: as §1

[6] = system: HBV (hepatitis B virus)
[7] = system: CEM cells; conditions: human
[8] = system: Vero cells; conditions: African green monkey
[9] = Cytotoxicity in mitogen stimulated uninfected human PBM cells (trypan blue exclusion); type: cell-based
Text: The cells were counted after 6 days using a hemacytometer and the trypan blue exclusion method, as described by Schinazi et al., Antimicrobial Agents and Chemotherapy, 22(3), 499 (1982).

[10] = target: T1, HIV RT (Human immunodeficiency virus type 1 group M subtype B, UniProt P04585); test: Affinity of triphosphate against HIV RT; type: biochemical; conditions: read-out: affinity (K^1) against HIV RT
T1 construct: (±)-FTC triphosphate against HIV RT is 0.2 μM

[11] = system: human PBM cells; test: Egress of radiolabeled (±)-FTC from human PBM cells; type: in vitro ADME; conditions: 48 hours after the removal of the extracellular drug
Description: (§2) Studies are conducted in duplicate. Uninfected cells (2×10^6 ml) are suspended in the appropriate medium supplemented with serum (10 ml per timepoint) and incubated at 37° C. in a 5% CO2 incubator. Radiolabeled FTC concentration is 10 μM. After pulsing the cells with the labeled compound for the desired time, the cells are thoroughly washed and then replenished with fresh medium without the antiviral drugs (0 hr). At 0, 2, 4, 6, 12, 24, and 48 hours (second incubation time), the cells are removed, and immediately extracted with 60% cold methanol/water. The extract is obtained by centrifugation and removal of the cell pellet. The extracts are lyophilized and then stored at −70° C. Prior to analysis, the material is resuspended in 250 μl of HPLC buffer and immediately analyzed.
(§3) Either a Micromeritics or Hewlett-Packard model 1090 PHLC system is used with an anion exchange Partisil 10 SAX column (Whatman, Inc.), at a flow rate of 1 ml/min, 1 kpsi pressure, using uv detection at 262 nm.
(§4) The mobile phase consists of:
(§5) b. 2 mM NaH2PO4/16 mM NaOAc (pH=6.6)
(§6) Separation method: isocratic for 5 min with A, followed by a 15 min linear gradient to 100% B, followed by a 20 min linear gradient to 100% C, followed by 10 min linear gradient to 100% D, followed by 30 min isocratic with 100% D.

[12] = as above; type: in vitro ADME; conditions: human PBM cells, after 24 hour pulse with 10 μM; read-out: intracellular half-life (converted)
Description: as §2, §3, §4, §5, §6

[13] = Human immunodeficiency virus 1, PBMC, human PBM cells infected with HIV-1, enantiomers isolated by chiral HPLC (Example 3), read-out: EC50
[14] = Human immunodeficiency virus 1, PBMC, 0.005 μM, read-out: % Inhibition (Corrected)
[15] = Human immunodeficiency virus 1, PBMC, 0.01 μM, read-out: % Inhibition (Corrected)
[16] = Human immunodeficiency virus 1, PBMC, 0.05 μM, read-out: % Inhibition (Corrected)
[17] = Human immunodeficiency virus 1, PBMC, 0.5 μM, read-out: % Inhibition (Corrected)
[18] = Human immunodeficiency virus 1, PBMC, 1 μM, read-out: % Inhibition (Corrected)
[19] = Human immunodeficiency virus 1, PBMC, 5 μM, read-out: % Inhibition (Corrected)
[20] = Human immunodeficiency virus 1, PBMC, 10 μM, read-out: % Inhibition (Corrected)

| SMILES | DPM/ml ([1]; 0.005 μM) | DPM/ml ([1]; 0.01 μM) | DPM/ml ([1]; 0.05 μM) | DPM/ml ([1]; 0.1 μM) | DPM/ml ([1]; 0.5 μM) | DPM/ml ([1]; 1 μM) | DPM/ml ([1]; 5 μM) | DPM/ml ([1]; 10 μM) | pEC50 [1, 13] | inhibition at 0.005 µM [1, 14] [%] | inhibition at 0.01 µM [1, 15] [%] | inhibition at 0.05 µM [1, 16] [%] | inhibition at 0.5 µM [1, 17] [%] | inhibition at 1 µM [1, 18] [%] | inhibition at 5 µM [1, 19] [%] | inhibition at 10 µM [1, 20] [%] | activity against HBV [6] | IC50 at 6 days [9] [nM] | further results |
| --- | --- | --- | --- | --- | --- | --- | --- | --- | --- | --- | --- | --- | --- | --- | --- | --- | --- | --- | --- |
| Nc1ccn(C2CSC(CO)O2)c(=O)n1 (racemic) [BCH-189 (±), 2-hydroxymethyl-5-(cytosin-1-yl)-1,3-oxathiolane, reference compound] | 62,595 DPM/ml | 70,875 DPM/ml | 77,650 DPM/ml | 33,165 DPM/ml | 10,765 DPM/ml | 7,745 DPM/ml | 6,800 DPM/ml | 4,470 DPM/ml | 7.09 | 38.9 | 29.8 | 22.3 | 96.2 | 99.5 | 101 | 103 |  |  | DPM/ml ([1]; 0.001 μM): 65,170 DPM/ml; inhibition at 0.001 µM ([1]; Human immunodeficiency virus 1, PBMC, 0.001 μM, read-out: % Inhibition (Corrected)): 36.1%; inhibition at 0.1 µM ([1]; Human immunodeficiency virus 1, PBMC, 0.1 μM, read-out: % Inhibition (Corrected)): 71.4%; activity against HIV compared with AZT [2]: approximately the same activity against HIV as AZT; replication of AZT-resistant HIV isolates [3]: inhibit the replication |
| Nc1nc(=O)n(C2CSC(CO)O2)cc1F (racemic) [DLS-022, 2-hydroxymethyl-5-(5-fluorocytosin-1-yl)-1,3-oxathiolane] | 83,005 DPM/ml | 60,465 DPM/ml | 34,120 DPM/ml | 14,160 DPM/ml | 18,095 DPM/ml | 7,555 DPM/ml | 7,940 DPM/ml | 5,810 DPM/ml | 7.74 | 16.3 | 41.3 | 70.4 | 88.1 | 99.7 | 99.3 | 102 | effective | > 100000 | uptake in human lymphocytes [4]: readily taken up; metabolism to triphosphate in human liver cells ([5]; hepG2 cells): metabolize a large percentage; uptake by hepG2 cells ([5]; human liver cells): taken up by hepG2 cells in large amounts; toxicity [7]: > 100 µM; toxicity [8]: > 100 µM; DPM/ml ([1]; 0.0001 μM): 73,755 DPM/ml; inhibition at 0.0001 µM ([1]; Human immunodeficiency virus 1, PBMC, 0.0001 μM, read-out: % Inhibition (Corrected)): 26.6%; pEC50 ([1]; Human immunodeficiency virus 1, PBMC, human PBM cells infected with HIV-1 (strain LAV), Table 3, read-out: Antiviral EC50): 7.96; pEC50 ([1]; Human immunodeficiency virus 1, PBMC, human PBM cells infected with HIV-1, enantiomers resolved by method of Example 2 (FIG. 5), read-out: EC50): 7.77 |
| Nc1nc(=O)n(C2CSC(CO)O2)cc1F (single isomer, unassigned; (-)) [DLS-058 (−), (−)-2-hydroxymethyl-5-(5-fluorocytosin-1-yl)-1,3-oxathiolane] |  |  |  |  |  |  |  |  |  |  |  |  |  |  |  |  | significant activity | > 100000 | % Inhibition (Corrected) ([1]; 0.001 μM, listed as FTC (−)): 23.8%; DPM/ml ([1]; 0.001 μM, listed as FTC (−)): 76,275 DPM/ml; % Inhibition (Corrected) ([1]; 0.005 μM, listed as FTC (−)): 43.3%; DPM/ml ([1]; 0.005 μM, listed as FTC (−)): 58,590 DPM/ml; % Inhibition (Corrected) ([1]; 0.01 μM, listed as FTC (−)): 24.8%; DPM/ml ([1]; 0.01 μM, listed as FTC (−)): 75,350 DPM/ml; % Inhibition (Corrected) ([1]; 0.05 μM, listed as FTC (−)): 76.2%; DPM/ml ([1]; 0.05 μM, listed as FTC (−)): 28,890 DPM/ml; % Inhibition (Corrected) ([1]; 0.1 μM, listed as FTC (−)): 93.5%; DPM/ml ([1]; 0.1 μM, listed as FTC (−)): 13,175 DPM/ml; % Inhibition (Corrected) ([1]; 0.5 μM, listed as FTC (−)): 97.6%; DPM/ml ([1]; 0.5 μM, listed as FTC (−)): 9,485 DPM/ml; pEC50 ([1]; summary range, read-out: EC50 against HIV): 7.70 to 8.11 |
| Nc1nc(=O)n(C2CSC(COP(=O)(O)OP(=O)(O)OP(=O)(O)O)O2)cc1F (racemic) [FTC-triphosphate] |  |  |  |  |  |  |  |  |  |  |  |  |  |  |  |  |  |  | pKi [10]: 6.70; intracellular concentration [11]: 1 to 5 µM; half-life at 10 μM [12]: ~12 h |
